According to the NIST ThermoML archive (doi:10.1021/je050050p):

Assay: xn = mol fraction of the nth substance listed
Conditions: Liquid, Vibrating tube method

CN(C)C=O [dimethylformamide] + O=C=O
Conditions	mass density [kg/m3]
313.13 K, 8014 kPa, x2 = 0.6235	949.79
313.13 K, 9041 kPa, x2 = 0.6235	952.04
313.13 K, 10057 kPa, x2 = 0.6235	954.25
313.13 K, 10998 kPa, x2 = 0.6235	956.28
313.13 K, 11991 kPa, x2 = 0.6235	958.34
313.13 K, 12985 kPa, x2 = 0.6235	960.34
313.13 K, 14000 kPa, x2 = 0.6235	962.36
313.13 K, 14996 kPa, x2 = 0.6235	964.28
313.13 K, 16016 kPa, x2 = 0.6235	966.23
313.13 K, 16993 kPa, x2 = 0.6235	968.02
313.13 K, 18006 kPa, x2 = 0.6235	969.86
313.13 K, 18988 kPa, x2 = 0.6235	971.7
313.13 K, 20033 kPa, x2 = 0.6235	973.47
313.13 K, 21061 kPa, x2 = 0.6235	975.25
313.13 K, 22021 kPa, x2 = 0.6235	976.88
313.13 K, 22996 kPa, x2 = 0.6235	978.52
313.13 K, 24001 kPa, x2 = 0.6235	980.14
313.13 K, 25034 kPa, x2 = 0.6235	981.79
313.14 K, 9015 kPa, x2 = 0.8091	920.03
313.14 K, 9992 kPa, x2 = 0.8091	923.92
313.14 K, 10006 kPa, x2 = 0.9311	835.47
313.14 K, 11003 kPa, x2 = 0.8091	927.79
313.14 K, 11013 kPa, x2 = 0.9311	846.13
313.14 K, 12022 kPa, x2 = 0.8091	931.54
313.14 K, 12041 kPa, x2 = 0.9311	855.75
313.14 K, 13011 kPa, x2 = 0.8091	934.99
313.14 K, 13017 kPa, x2 = 0.9311	864.01
313.14 K, 14003 kPa, x2 = 0.8091	938.37
313.14 K, 14036 kPa, x2 = 0.9311	871.87
313.14 K, 15006 kPa, x2 = 0.8091	941.63
313.14 K, 15031 kPa, x2 = 0.9311	878.95
313.14 K, 16000 kPa, x2 = 0.8091	944.75
313.14 K, 16006 kPa, x2 = 0.9311	885.43
313.14 K, 16988 kPa, x2 = 0.8091	947.8
313.14 K, 17030 kPa, x2 = 0.9311	891.82
313.14 K, 17988 kPa, x2 = 0.9311	897.48
313.14 K, 18019 kPa, x2 = 0.8091	950.82
313.14 K, 18996 kPa, x2 = 0.8091	953.63
313.14 K, 19037 kPa, x2 = 0.9311	903.28
313.14 K, 20022 kPa, x2 = 0.9311	908.47
313.14 K, 20032 kPa, x2 = 0.8091	956.51
313.14 K, 21000 kPa, x2 = 0.9311	913.41
313.14 K, 21035 kPa, x2 = 0.8091	959.25
313.14 K, 21995 kPa, x2 = 0.8091	961.81
313.14 K, 22002 kPa, x2 = 0.9311	918.23
313.14 K, 23016 kPa, x2 = 0.9311	922.92
313.14 K, 23033 kPa, x2 = 0.8091	964.52
313.14 K, 24006 kPa, x2 = 0.9311	927.35
313.14 K, 24015 kPa, x2 = 0.8091	966.98
313.14 K, 25006 kPa, x2 = 0.8091	969.42
313.14 K, 25020 kPa, x2 = 0.9311	931.7
313.15 K, 4032 kPa, x2 = 0.2876	948.43
313.15 K, 5041 kPa, x2 = 0.2876	949.39
313.15 K, 6004 kPa, x2 = 0.2876	950.24
313.15 K, 6005 kPa, x2 = 0.4268	955.61
313.15 K, 6022 kPa, x2 = 0.4461	956.18
313.15 K, 6967 kPa, x2 = 0.2876	951.12
313.15 K, 6991 kPa, x2 = 0.4461	957.31
313.15 K, 7013 kPa, x2 = 0.4268	956.75
313.15 K, 8002 kPa, x2 = 0.2876	952.05
313.15 K, 8008 kPa, x2 = 0.4268	957.9
313.15 K, 8024 kPa, x2 = 0.4461	958.53
313.15 K, 9005 kPa, x2 = 0.2876	952.94
313.15 K, 9006 kPa, x2 = 0.4461	959.66
313.15 K, 9014 kPa, x2 = 0.4268	958.99
313.15 K, 9998 kPa, x2 = 0.4461	960.8
313.15 K, 10000 kPa, x2 = 0.2876	953.81
313.15 K, 10006 kPa, x2 = 0.4268	960.05
313.15 K, 10989 kPa, x2 = 0.4461	961.9
313.15 K, 11017 kPa, x2 = 0.2876	954.68
313.15 K, 11017 kPa, x2 = 0.4268	961.14
313.15 K, 12006 kPa, x2 = 0.4268	962.22
313.15 K, 12024 kPa, x2 = 0.2876	955.56
313.15 K, 12025 kPa, x2 = 0.4461	963.02
313.15 K, 13003 kPa, x2 = 0.4461	964.12
313.15 K, 13004 kPa, x2 = 0.4268	963.25
313.15 K, 13007 kPa, x2 = 0.2876	956.41
313.15 K, 13997 kPa, x2 = 0.4268	964.28
313.15 K, 13999 kPa, x2 = 0.4461	965.2
313.15 K, 14004 kPa, x2 = 0.2876	957.26
313.15 K, 14993 kPa, x2 = 0.4461	966.26
313.15 K, 15003 kPa, x2 = 0.4268	965.36
313.15 K, 15006 kPa, x2 = 0.2876	958.1
